In patent US9573913B2, “Cathepsin cysteine protease inhibitors” (Merck Sharp & Dohme Corp., priority 2013, dated 2017):

Tests used:
human cathepsin K = human cathepsin K (UniProt P43236); test: Cathepsin K Assay (hrbCat K); assay type: biochemical; conditions: Z-Leu-Arg-AMC substrate, pH 5.5, 15 min preincubation; read-out: hrbCat K (IP (nM))
Method: Cathepsin K Assay (hrbCat K)
(§1) Then 0.5 μL of DMSO from each dilution were added to 18.75 μL of assay buffer (MES, 50 mM (pH 5.5); EDTA, 2.5 mM; DTT, 2.5 mM and 10% DMSO) containing human cathepsin K (0.4 nM) in assay buffer solution. The assay solutions were mixed for 5-10 seconds on a shaker plate and incubated for 15 minutes at room temperature. Z-Leu-Arg-AMC (8 μM) in 6.25 μL of assay buffer was added to the assay solutions. Hydrolysis of the coumarin leaving group (AMC) was followed by spectrofluorometry (Exλ=360 nm; Emλ=460 nm) for 30 minutes. Percent of inhibition were calculated by fitting experimental values to standard mathematical model for dose response curve.

human cathepsin F = target: T1, human cathepsin F (Homo sapiens, UniProt Q9UBX1); test: Cathepsin F assay (hCat F); assay type: biochemical; conditions: Z-Phe-Arg-AMC substrate, pH 5.5, 15 min preincubation; read-out: hCat F (IP (nM))
T1 sequence (Q9UBX1 271-484): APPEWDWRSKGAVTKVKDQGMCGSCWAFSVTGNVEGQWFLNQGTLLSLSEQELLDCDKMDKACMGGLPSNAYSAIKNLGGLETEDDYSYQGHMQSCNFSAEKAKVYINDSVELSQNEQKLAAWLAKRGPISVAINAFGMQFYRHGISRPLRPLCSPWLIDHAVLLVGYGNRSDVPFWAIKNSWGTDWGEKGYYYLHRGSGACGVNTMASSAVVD
Method: Cathepsin F assay (hCat F)
as §1, with “Serial dilutions (1/3) from 500 μM down to 0.025 μM of test compounds were prepared in dimethyl sulfoxide (DMSO). Then” for “Then”, “F (10” for “K (0.4”, “Z-Phe-Arg-AMC” for “Z-Leu-Arg-AMC”, “20” for “30”

| SMILES | IC50 (human cathepsin K) | IC50 (human cathepsin F) |
| --- | --- | --- |
| N#CC1(NC(=O)[C@@H]2CCCC[C@H]2c2nc(-c3ncc(F)cn3)sc2-c2ccc(N3CCS(=O)(=O)CC3)cc2)CC1 [Example 80, (1R,2R)-N-(1-cyanocyclopropyl)-2-(5-(4-(1,1-dioxidothiomorpho-lino)phenyl)-2-(5-fluoropyrimidin-2-yl)thiazol-4-yl)cyclohexane-carboxamide] | 31.6 nM | ≥ 10000 nM |
| N#CC1(NC(=O)[C@@H]2CCCC[C@H]2c2nc(-c3ccon3)sc2-c2ccc(N3CCS(=O)(=O)CC3)cc2)CC1 [Example 39, (1R,2R)-N-(1-cyanocyclopropyl)-2-(5-(4-(1,1-dioxidothiomorpho-lino)phenyl)-2-(isoxazol-3-yl)thiazol-4-yl)cyclohexane-carboxamide] | 1 nM | 1360 nM |
| Cc1nc([C@@H]2CC[C@H](F)C[C@H]2C(=O)NC2(C#N)CC2)c(-c2ccc(N3CCC(S(C)(=O)=O)CC3)cc2)s1 [Example 243, (1R,2R,5S)-N-(1-cyanocyclopropyl)-5-fluoro-2-(2-methyl-5-(4-(4-(methylsulfonyl)piperidin-1-yl)phenyl)thiazol-4-yl)cyclohexane-carboxamide] | 5.3 nM | 8430 nM |
| N#CC1(NC(=O)[C@@H]2CCCC[C@H]2c2nc(N3CCOCC3)sc2-c2ccc(N3CCS(=O)(=O)CC3)cc2)CC1 [Example 40, (1R,2R)-N-(1-cyanocyclopropyl)-2-(5-(4-(1,1-dioxidothiomorpho-lino)phenyl)-2-morpholinothiazol-4-yl)cyclohexane-carboxamide] | 1.8 nM | ≥ 10000 nM |
| C[C@@H](C#N)NC(=O)[C@@H]1C[C@@H](F)CC[C@H]1c1nc(C(C)(C)C)oc1-c1ccc(N2CCS(=O)(=O)CC2)cc1 [Example 169, (1R,2R,5S)-2-(2-(tert-butyl)-5-(4-(1,1-dioxidothiomorpho-lino)phenyl)oxazol-4-yl)-N-((S)-1-cyanoethyl)-5-fluorocyclohexane-carboxamide] | 2.7 nM | 5660 nM |
| CC(C)(C)c1nc([C@@H]2CC[C@H](F)C[C@H]2C(=O)NC2(C#N)CC2)c(-c2ccc(N3CCS(=N)(=O)CC3)cc2)o1 [Example 13, (1R,2R,5S)-2-(2-(tert-Butyl)-5-(4-(1-imino-1-oxidothiomorpholino)phenyl)oxazol-4-yl)-N-(1-cyanocyclopropyl)-5-fluorocyclohexanecarboxamide] | 6 nM | ≥ 10000 nM |
| N#CC1(NC(=O)[C@@H]2CCCC[C@H]2c2nc(C3CCOC3)sc2-c2ccc(N3CCS(=O)(=O)CC3)cc2)CC1 (mixture of isomers) [Example 147, (1R,2R)-N-(1-cyanocyclopropyl)-2-(5-(4-(1,1-dioxidothiomorpho-lino)phenyl)-2-((R and S)-tetrahydrofuran-3-yl)thiazol-4-yl)cyclohexane-carboxamide] | 4.5 nM | 1000 nM |
| N#CC1(NC(=O)[C@@H]2C[C@@H](F)CC[C@H]2c2nc(C(F)F)sc2-c2ccc(N3CCS(=O)(=O)CC3)cc2)CC1 [Example 2219, (1R,2R,5S)-N-(1-cyanocyclopropyl)-2-(2-(difluoromethyl)-5-(4-(1,1-dioxidothiomorpho-lino)phenyl)thiazol-4-yl)-5-fluorocyclohexane-carboxamide] | 1.8 nM | 4860 nM |
| Cc1ccc(-c2nc([C@@H]3CC[C@H](F)C[C@H]3C(=O)NC3(C#N)CC3)c(-c3ccc(N4CCC(S(C)(=O)=O)CC4)cc3)s2)nn1 [Example 223, (1R,2R,5S)-N-(1-cyanocyclopropyl)-5-fluoro-2-(2-(6-methylpyridazin-3-yl)-5-(4-(4-(methylsulfonyl)piperidin-1-yl)phenyl)thiazol-4-yl)cyclohexane-carboxamide] | 2.9 nM | 2230 nM |
| N#CC1(NC(=O)[C@@H]2C[C@@H](F)CC[C@H]2c2nc(-c3cncc(F)c3)sc2-c2ccc(N3CCS(=O)(=O)CC3)cc2)CC1 [Compound 7, (1R,2R,5S)-N-(1-cyanocyclopropyl)-2-(5-(4-(1,1-dioxidothiomorpholino)phenyl)-2-(5-fluoropyridin-3-yl)thiazol-4-yl)-5-fluorocyclohexanecarboxamide] | 0.9 nM | 1920 nM |
| N#CC1(NC(=O)[C@@H]2CCC(F)(F)C[C@H]2c2nc(-c3ccc(F)cn3)sc2-c2ccc(N3CCS(=O)(=O)CC3)cc2)CC1 [Example 107, (1R,2R)-N-(1-cyanocyclopropyl)-2-(5-(4-(1,1-dioxidothiomorpho-lino)phenyl)-2-(5-fluoropyridin-2-yl)thiazol-4-yl)-4,4-difluorocyclohexane-carboxamide] | 3.3 nM | 1000 nM |
| N#CCNC(=O)[C@@H]1C[C@@H](F)CC[C@H]1c1nc(-c2ccc(F)cn2)sc1-c1ccc(N2CCS(=O)(=O)CC2)cc1 [Example 124, (1R,2R,5S)-N-(cyanomethyl)-2-(5-(4-(1,1-dioxidothiomorpho-lino)phenyl)-2-(5-fluoropyridin-2-yl)thiazol-4-yl)-5-fluorocyclohexane-carboxamide] | 1.8 nM | 3120 nM |
| N#CC1(NC(=O)[C@@H]2C[C@@H](F)CC[C@H]2c2nc(N3CCOCC3)sc2-c2ccc(N3CCS(=O)(=O)CC3)cc2)CC1 [Example 116, (1R,2R,5S)-N-(1-cyanocyclopropyl)-2-(5-(4-(1,1-dioxidothiomorpho-lino)phenyl)-2-morpholinothiazol-4-yl)-5-fluorocyclohexane-carboxamide] | 2.4 nM | 1000 nM |
| N#CC1(NC(=O)[C@@H]2CCCC[C@H]2c2nc(-c3ccc(F)cc3)sc2-c2ccc(C(=O)N3CCNC(=O)C3)cc2)CC1 [Example 35, (1R,2R)-N-(1-cyanocyclopropyl)-2-(2-(4-fluorophenyl)-5-(4-(3-oxopiperazine-1-carbonyl)phenyl)thi-azol-4-yl)cyclohexane-carboxamide] | 64.5 nM | 667 nM |
| CC1(C)CN(c2nc([C@@H]3CCCC[C@H]3C(=O)NC3(C#N)CC3)c(-c3ccc(N4CCS(=O)(=O)CC4)cc3)s2)CC(C)(C)O1 [Example 101, (1R,2R)-N-(1-cyanocyclopropyl)-2-(5-(4-(1,1-dioxidothiomorpho-lino)phenyl)-2-(2,2,6,6-tetramethylmorpho-lino)thiazol-4-yl)cyclohexane-carboxamide] | 48.8 nM | ≥ 10000 nM |
| CS(=O)(=O)C1CN(c2ccc(-c3sc(-c4cncc(Cl)c4)nc3[C@@H]3CCCC[C@H]3C(=O)NC3(C#N)CC3)cc2)C1 [Example 85, (1R,2R)-2-(2-(5-chloropyridin-3-yl)-5-(4-(3-(methylsulfonyl)azetidin-1-yl)phenyl)thiazol-4-yl)-N-(1-cyanocyclopropyl) cyclohexanecarbox-amide] | 2.1 nM | 1090 nM |
| Cc1ccc(-c2nc([C@@H]3CC[C@H](F)C[C@H]3C(=O)N[C@H](C#N)C(C)C)c(-c3ccc(N4CCS(=O)(=O)CC4)cc3)s2)nn1 [Example 217, (1R,2R,5S)-N-((S)-1-cyano-2-methylpropyl)-2-(5-(4-(1,1-dioxidothiomorpho-lino)phenyl)-2-(6-methylpyridazin-3-yl)thiazol-4-yl)-5-fluorocyclohexane-carboxamide] | 1.5 nM | 2930 nM |
| N#CC1(NC(=O)[C@@H]2CCCC[C@H]2c2nc(-c3ccc(F)cc3)oc2-c2ccc(N3CCS(=O)(=O)CC3)cc2)CC1 [Example 10, (1R,2R)-N-(1-cyanocyclopropyl)-2-(5-(4-(1,1-dioxidothiomorpholino)phenyl)-2-(4-fluorophenyl)oxazol-4-yl)cyclohexanecarboxamide] | 2.5 nM | 1110 nM |
| Cc1nc(-c2nc([C@@H]3CCCC[C@H]3C(=O)NC3(C#N)CC3)c(-c3ccc(N4CCS(=O)(=O)CC4)cc3)s2)cs1 [Example 91, (1R,2R)-N-(1-cyanocyclopropyl)-2-(5-(4-(1,1-dioxidothiomorpho-lino)phenyl)-2′-methyl-[2,4′-bithiazol]-4-yl)cyclohexane-carboxamide] | 3.3 nM | 1110 nM |
| Cc1ccc(-c2nc([C@@H]3CCCC[C@H]3C(=O)NC3(C#N)CC3)c(-c3ccc(N4CCS(=O)(=O)CC4)cc3)s2)c(C#N)c1 [Example 67, (1R,2R)-2-(2-(2-cyano-4-methylphenyl)-5-(4-(1,1-dioxidothiomorpho-lino)phenyl)thiazol-4-yl)-N-(1-cyanocyclopropyl) cyclohexanecarbox-amide] | 5.8 nM | ≥ 10000 nM |
| Cc1ncc(-c2nc([C@@H]3CC[C@H](F)C[C@H]3C(=O)NC3(C#N)CC3)c(-c3ccc(N4CCS(=O)(=O)CC4)cc3)s2)s1 [Example 128, (1R,2R,5S)-N-(1-cyanocyclopropyl)-2-(5-(4-(1,1-dioxidothiomorpho-lino)phenyl)-2′-methyl-[2,5′-bithiazol]-4-yl)-5-fluorocyclohexane-carboxamide] | 1.8 nM | ≥ 10000 nM |
